The IC50 is the point on the concentration scale where inhibition reaches its midpoint. The inhibition is how much of the control response was suppressed.

IC50 and inhibition data for 15 molecules are collected here from patent US9012412B2, “Dual SGLT1/SGLT2 inhibitors” (Janssen Pharmaceutica NV, priority 2013, dated 2015).

Structures are written as SMILES.

One test has as its target T1, human SGLT1 (Homo sapiens, UniProt P13866).
T1 construct: expressed in transfected cells
T1 sequence (P13866 1-664): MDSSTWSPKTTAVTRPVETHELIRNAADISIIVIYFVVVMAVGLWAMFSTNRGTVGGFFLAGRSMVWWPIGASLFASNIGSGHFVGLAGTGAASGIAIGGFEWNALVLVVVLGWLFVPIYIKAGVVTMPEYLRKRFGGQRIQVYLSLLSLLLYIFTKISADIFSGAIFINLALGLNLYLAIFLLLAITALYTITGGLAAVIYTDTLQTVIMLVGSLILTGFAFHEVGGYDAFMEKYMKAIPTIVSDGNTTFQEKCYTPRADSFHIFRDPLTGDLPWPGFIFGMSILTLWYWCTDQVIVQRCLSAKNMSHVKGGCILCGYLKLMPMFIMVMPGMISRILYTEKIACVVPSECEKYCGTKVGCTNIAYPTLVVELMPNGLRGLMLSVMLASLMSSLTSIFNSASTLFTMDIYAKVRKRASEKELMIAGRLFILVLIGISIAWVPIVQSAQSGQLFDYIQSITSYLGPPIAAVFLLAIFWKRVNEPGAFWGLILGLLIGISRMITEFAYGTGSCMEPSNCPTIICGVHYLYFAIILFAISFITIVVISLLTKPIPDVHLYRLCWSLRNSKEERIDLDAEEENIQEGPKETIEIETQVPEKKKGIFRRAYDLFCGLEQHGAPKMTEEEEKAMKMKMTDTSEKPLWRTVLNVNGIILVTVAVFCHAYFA
In words: Sodium-dependent 14C-methyl-α-D-glucopyranoside uptake in CHO-K1 cells stably expressing human SGLT1. It is filed as cell-based. The following applies: for IC50: 14C-methyl-α-D-glucopyranoside uptake; for inhibition at 3 µM: compound at 3 μM; for inhibition at 0.1 µM: compound at 0.1 μM. The procedure: (§1) SGLT1 and SGLT2 were cloned in form of cDNA from human small intestine (Genbank M24847), and from human kidney (Genbank M95549), respectively. Subsequently, each full cDNA was subcloned into pcDNA with each construct's integrity verified through follow-on sequencing. To generate CHO-K1 cells that stably express human SGLT1 or human SGLT2 CHO-K1 cells were transfected using DMRIE-C reagent (Life Technologies, Gaithersburg, Md.). Transfected cells were then selected in the presence of 500 μg/ml of the antibiotic G418 (Gibco-BRL, Grand Island, N.Y.). Individual clones were then characterized using the following cell-based assay for sodium-dependent glucose transport.
(§2) First, cell lines stably expressing human SGLT1 or SGLT2 were seeded at a density of 65,000 cells per well per 200 μl cell culture medium with 10 mM of NaButyrate (Aldrich Catalog No. 30341-0) in a 96-well flat bottom plate (COSTAR, Catalog No. 3903). For human SGLT1 or SGLT2 expressing CHO-K1 cells the culture medium comprised Ham's F-12 (Invitrogen Catalog No. 31765), Fetal Bovine Serum (Invitrogen Catalog No. 16000), G418 (Geneticin, Cellgro Catalog No. 30234-CI), Phlorizidin (Sigma Catalog No. P3449), DPBS (Cellgro Catalog No. 21030-CV), ^14C-methyl-α-D-glucopyranoside (Amersham Catalog No. CFB 76), and Methyl-α-D-glucopyranoside (Sigma Catalog No. M-9376).
(§3) The cells were allowed to incubate for 24 hours. Subsequently, the medium was aspirated from the plates and the cells were washed one time with 150 μl assay buffer and incubate 15 min with another 150 μl assay buffer which comprised 50 mM HEPES pH 7.4, 20 mM Tris Base, 5 mM KCl, 1 mM MgCl2, 1 mM CaCl2, and 137 mM NaCl. After removing the wash buffer, 40 μl assay buffer and 10 μl compound solution was added to each well, which was again allowed to incubate for 10 min.
(§4) Following the 10 min incubation, 10 μl of serial diluted Methyl-α-D-glucopyranoside (Sigma Catalog No. M-9376) containing 0.07 μCi ^14C-methyl-α-D-glucopyranoside (Amersham Catalog No. CFB 76) was added to the appropriate well and allowed to incubate for another 2 hours. ^14C-methyl-α-D-glucopyranoside (Sigma Catalog No. M-9376, St. Louis, Mo.) is a non-metabolizable glucose analog specific for sodium-dependent glucose transporters as previously described by H. Peng and J. E. Lever in “Post-transcriptional regulation of Na+/glucose cotransporter (SGLT1) gene expression in LLC-PK1 cells,” J. Biol. Chem. 270, 20536-42 (1995).
(§5) Next, the plates were twice washed with 150 μl of ice-cold DPBS (Cellgro Catalog No. 21030) that was then completely removed from the plates before adding 50 μl of MicroScint™-20 (Packard Catalog No. 6013621) to each well for a 20 min or longer incubation time.
(§6) Sodium-dependent ^14C-methyl-α-D-glucopyranoside uptake was quantified by measuring radioactivity. Plates were counted in a TopCount (Packard, Meriden, Conn.). Results are reported as the %-inhibition or IC50 value from a representative experiment. Variability for the functional assay was typically within 20%.

The target in the next test is T2, human SGLT2 (Homo sapiens, UniProt P31639).
T2 construct: expressed in transfected cells
T2 sequence (P31639 1-672): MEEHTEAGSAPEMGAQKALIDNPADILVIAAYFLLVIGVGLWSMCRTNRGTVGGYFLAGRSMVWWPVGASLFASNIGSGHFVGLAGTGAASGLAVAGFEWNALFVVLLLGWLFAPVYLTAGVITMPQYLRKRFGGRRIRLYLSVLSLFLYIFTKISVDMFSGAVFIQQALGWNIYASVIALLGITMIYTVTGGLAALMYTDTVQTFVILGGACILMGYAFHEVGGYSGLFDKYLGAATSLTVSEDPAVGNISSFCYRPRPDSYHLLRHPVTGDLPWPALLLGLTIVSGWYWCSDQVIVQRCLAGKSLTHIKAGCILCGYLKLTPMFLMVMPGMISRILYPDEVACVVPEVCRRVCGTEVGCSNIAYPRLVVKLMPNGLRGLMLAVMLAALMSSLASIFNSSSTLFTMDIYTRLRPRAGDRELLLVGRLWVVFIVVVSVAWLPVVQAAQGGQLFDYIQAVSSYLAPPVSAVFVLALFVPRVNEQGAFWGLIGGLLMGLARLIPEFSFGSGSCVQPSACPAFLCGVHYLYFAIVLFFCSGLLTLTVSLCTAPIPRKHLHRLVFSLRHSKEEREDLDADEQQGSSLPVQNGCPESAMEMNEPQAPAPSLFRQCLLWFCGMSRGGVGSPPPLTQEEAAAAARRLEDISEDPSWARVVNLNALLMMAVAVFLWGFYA
As to the kind of experiment: Sodium-dependent 14C-methyl-α-D-glucopyranoside uptake in CHO-K1 cells stably expressing human SGLT2. It is filed as cell-based. The following applies: for IC50: 14C-methyl-α-D-glucopyranoside uptake; for inhibition at 3 µM: compound at 3 μM; for inhibition at 0.1 µM: compound at 0.1 μM. The procedure:
as §1, §2, §3, §4, §5, §6

Take `Cc1cc(O)c([C@@H]2O[C@H](CO)C[C@H](O)[C@H]2O)cc1Cc1cc2cc(F)ccc2s1` [Cpd 19, (2S,3R,4S,6S)-2-(5-((5-fluorobenzo[b]thiophen-2-yl)methyl)-2-hydroxy-4-methylphenyl)-6-(hydroxymethyl)tetrahydro-2H-pyran-3,4-diol]: the IC50 came out at 220 nM against human SGLT1 and 41 nM against human SGLT2.

Turning to `CCc1ccc(Cc2cc([C@@H]3O[C@H](CO)C[C@H](O)[C@H]3O)c(O)cc2C)s1` [Cpd 32, (2S,3R,4S,6S)-2-(5-((5-ethylthiophen-2-yl)methyl)-2-hydroxy-4-methylphenyl)-6-(hydroxymethyl)tetrahydro-2H-pyran-3,4-diol], the IC50 amounted to 97 nM against human SGLT1 and 4 nM on human SGLT2.

In the case of `C=C(c1cc2ccccc2s1)c1cc([C@@H]2O[C@H](CO)C[C@H](O)[C@H]2O)c(O)cc1OC` [Cpd 7, (2S,3R,4S,6S)-2-(5-(1-(benzo[b]thiophen-2-yl)vinyl)-2-hydroxy-4-methoxyphenyl)-6-(hydroxymethyl)tetrahydro-2H-pyran-3,4-diol], the inhibition at 3 µM was 43% against human SGLT1 and 6% against human SGLT2.

As to `OC[C@@H]1C[C@H](O)[C@@H](O)[C@H](c2cc(Cc3cc4ccccc4s3)c(Cl)cc2O)O1` [Cpd 3, (2S,3R,4S,6S)-2-(5-(benzo[b]thiophen-2-ylmethyl)-4-chloro-2-hydroxyphenyl)-6-(hydroxymethyl)tetrahydro-2H-pyran-3,4-diol], the IC50 at human SGLT1 was found to be 115 nM; at human SGLT2 it was 22 nM.

In turn, `OC[C@@H]1C[C@H](O)[C@@H](O)[C@H](c2cc(Cc3cc4ccccc4s3)c(C(F)(F)F)cc2O)O1` [Cpd 16, (2S,3R,4S,6S)-2-(5-(benzo[b]thiophen-2-ylmethyl)-2-hydroxy-4-(trifluoromethyl)phenyl)-6-(hydroxymethyl)tetrahydro-2H-pyran-3,4-diol] showed an IC50 at human SGLT1 of 240 nM. The molecule further registered an inhibition at 0.1 µM against human SGLT2 of 77%.

`Cc1cc(O)c([C@@H]2O[C@H](CO)C[C@H](O)[C@H]2O)cc1Cc1ccc(-c2ccc(F)cc2)s1` [Cpd 31, (2S,3R,4S,6S)-2-(5-((5-(4-fluorophenyl)thiophen-2-yl)methyl)-2-hydroxy-4-methylphenyl)-6-(hydroxymethyl)tetrahydro-2H-pyran-3,4-diol]: 272 nM corresponded to half-maximal inhibition against human SGLT1 (IC50). This molecule also registered an inhibition at 0.1 µM on human SGLT2 of 58%.

On to `Cc1cc(O)c([C@@H]2O[C@H](CO)C[C@H](O)[C@H]2O)cc1Cc1cc2cc(Cl)ccc2s1` [Cpd 20, (2S,3R,4S,6S)-2-(5-((5-chlorobenzo[b]thiophen-2-yl)methyl)-2-hydroxy-4-methylphenyl)-6-(hydroxymethyl)tetrahydro-2H-pyran-3,4-diol], for which the inhibition at 0.1 µM against human SGLT1 was 20%; against human SGLT2 it was 84%.

On to `COc1cc(O)c([C@@H]2O[C@H](CO)C[C@H](O)[C@H]2O)cc1C(C)(C)c1cc2ccccc2s1` [Cpd 14, (2S,3R,4S,6S)-2-(5-(2-(benzo[b]thiophen-2-yl)propan-2-yl)-2-hydroxy-4-methoxyphenyl)-6-(hydroxymethyl)tetrahydro-2H-pyran-3,4-diol], for which the inhibition at 0.3 µM was 46% at human SGLT1 (compound at 0.3 μM) and 54% at human SGLT2 (compound at 0.3 μM).

With `Cc1c(Cc2cc3ccccc3s2)cc([C@@H]2O[C@H](CO)C[C@H](O)[C@H]2O)c(O)c1C` [Cpd 22, (2S,3R,4S,6S)-2-(5-(benzo[b]thiophen-2-ylmethyl)-2-hydroxy-3,4-dimethylphenyl)-6-(hydroxymethyl)tetrahydro-2H-pyran-3,4-diol], the inhibition at 0.1 µM at human SGLT1 turned out to be 39%; at human SGLT2, 67%.

Turning to `COc1cc(O)c([C@@H]2O[C@H](CO)C[C@H](O)[C@H]2O)cc1C1(c2cc3ccccc3s2)CC1` [Cpd 9, (2S,3R,4S,6S)-2-(5-(1-(benzo[b]thiophen-2-yl)cyclopropyl)-2-hydroxy-4-methoxyphenyl)-6-(hydroxymethyl)tetrahydro-2H-pyran-3,4-diol], the figures for the inhibition at 3 µM against human SGLT1 and on human SGLT2 were 49% and 57%, respectively.

Consider `OC[C@@H]1C[C@H](O)[C@@H](O)[C@H](c2cc(Cc3cc4ccccc4s3)c(C3CC3)cc2O)O1` [Cpd 12, (2S,3R,4S,6S)-2-(5-(benzo[b]thiophen-2-ylmethyl)-4-cyclopropyl-2-hydroxyphenyl)-6-(hydroxymethyl)tetrahydro-2H-pyran-3,4-diol], for which the IC50 amounted to 99 nM at human SGLT1 and 683 nM on human SGLT2.

In the case of `Cc1cc(O)c([C@@H]2O[C@H](CO)C[C@H](O)[C@H]2O)cc1Cc1cc2ccccc2s1` [Cpd 1, (2S,3R,4S,6S)-2-(5-(benzo[b]thiophen-2-ylmethyl)-2-hydroxy-4-methylphenyl)-6-(hydroxymethyl)tetrahydro-2H-pyran-3,4-diol], the IC50 at human SGLT1 came to 117 nM; against human SGLT2, 16 nM.

For `Cc1cc(-c2cc[nH]n2)c([C@@H]2O[C@H](CO)C[C@H](O)[C@H]2O)cc1Cc1cc2ccccc2s1` [Cpd 27, (2S,3R,4S,6S)-2-(5-(benzo[b]thiophen-2-ylmethyl)-4-methyl-2-(1H-pyrazol-3-yl)phenyl)-6-(hydroxymethyl)tetrahydro-2H-pyran-3,4-diol], the figures for the IC50 on human SGLT1 and on human SGLT2 were 734 nM and 10 nM, respectively.

With `C=CCOc1c([C@@H]2O[C@H](CO)C[C@H](O)[C@H]2O)cc(Cc2cc3ccccc3s2)c(C)c1C` [Cpd 24, (2S,3R,4S,6S)-2-(2-(allyloxy)-5-(benzo[b]thiophen-2-ylmethyl)-3,4-dimethylphenyl)-6-(hydroxymethyl)tetrahydro-2H-pyran-3,4-diol], the inhibition at 0.1 µM came to 31% against human SGLT1 and 40% against human SGLT2.

Turning to `Cc1cc(O)c([C@@H]2O[C@H](CO)C[C@H](O)[C@H]2O)cc1Cc1nc2ccccc2s1` [Cpd 29, (2S,3R,4S,6S)-2-(5-(benzo[d]thiazol-2-ylmethyl)-2-hydroxy-4-methylphenyl)-6-(hydroxymethyl)tetrahydro-2H-pyran-3,4-diol], the inhibition at 0.1 µM is 22% at human SGLT1 and 41% against human SGLT2.
